# Results: paper PMC9926234, “Iterative computational design and crystallographic screening identifies potent inhibitors targeting the Nsp3 macrodomain of SARS-CoV-2” (Proceedings of the National Academy of Sciences of the …, 2023)
# Values joined by “and” are separate entries in the source; they are usually repeats but may differ in a detail not shown here. Identical values can stand only once. Like-named read-outs stand apart in the source and are kept apart here.
# Columns and labels:
# SARS-CoV-2 NSP3 Mac1 [1] = biological target: T1, SARS-CoV-2 NSP3 Mac1 (Severe acute respiratory syndrome coronavirus 2, UniProt P0DTD1); type: binding; conditions: for Refined occupancy: ligand occupancy after refinement (phenix.refine)
# SARS-CoV-2 NSP3 Mac1 [2] = biological target: T1, SARS-CoV-2 NSP3 Mac1; type: binding; parameters: contains a conserved macrodomain enzyme (Mac1); conditions: for Spearman est (compound concentration vs apparent Tm): DSF dose responsiveness, 1 µM nsp3 mac1, adj p given
# Protocol: DSF and associated compound handling was performed as described ([12]), with 5 µM dye “Fluorescent Yellow” (Jacquard iDye Cat #JID1405) used in place of SYPRO Orange. Compounds were tested in triplicate, at seven concentrations in two-fold serial dilutions, at a top concentration of either 1,000 or 100 μM. To minimize experimental noise arising from plate location-based effects on Tma, all concentrations and replicates for each compound were tested within a single region of the microtiter plates, including a DMSO-only control from which ΔTmas were calculated for that compound. […] For each compound, to determine statistical significance of the dose responsive thermal shift, the Spearman’s coefficient was calculated between compound concentration and ΔTma.
# [3] = PanDDA 1-BDC value of the event, crystal soak, compound concentration 100 mM, per dataset
# [4] = PanDDA event map, 1 minus background density correction, crystal soaking of Mac1
# [5] = crystal soak, compound concentration 100 mM, per dataset
# [6] = ligand modeled in the crystal structure, crystal soak, compound concentration 100 mM, per dataset
# [7] = true hit = binding in crystallographic soaking or the HTRF-based binding assay
# [8] = ligand modeled from this dataset, compound concentration 100 mM
# [9] = PanDDA event map, 1-BDC of the hit dataset, crystal soak, compound concentration 100 mM
# [10] = overall hit flag: binding in crystallographic soaking or the HTRF-based binding assay
# [11] = maximal thermal upshift vs DMSO control
Compound,1-BDC (SARS-CoV-2 NSP3 Mac1 [1]; [4]),Refined occupancy (SARS-CoV-2 NSP3 Mac1 [1]; crystal soaking of Mac1),HIT* (SARS-CoV-2 NSP3 Mac1 [1]; [7]),Spearman est (compound concentration vs apparent Tm) (SARS-CoV-2 NSP3 Mac1 [2]),DSF max dTma (SARS-CoV-2 NSP3 Mac1 [2]; maximal thermal upshift),also measured
Cc1nnc2n1CC(C(=O)O)N(C(=O)c1ccc(NC(=O)NC3CC3)cc1)C2 (stereo not drawn) [8539_0037],0.4,80,Y,0.16,2.36 ˚C,1-BDC (SARS-CoV-2 NSP3 Mac1 [1]; [3]): 0.4; PanDDA hit? (SARS-CoV-2 NSP3 Mac1 [1]; [5]): TRUE; Modeled? (SARS-CoV-2 NSP3 Mac1 [1]; [6]): TRUE
O=C(Nc1ccc(C(=O)N2CC(C(=O)O)Cc3ccccc32)cc1)NC1CC1 (stereo not drawn) [8539_0038],0.06,12,Y,0.19,0.98 ˚C,1-BDC (SARS-CoV-2 NSP3 Mac1 [1]; [3]): 0.06; PanDDA hit? (SARS-CoV-2 NSP3 Mac1 [1]; [5]): TRUE; Modeled? (SARS-CoV-2 NSP3 Mac1 [1]; [6]): TRUE
Cn1nc(O)c2c1CN(C(=O)c1cc(O)cc(=O)o1)CC2 [FRESH00002410346],0.07,14,Y,−0.34,0.09 ˚C,1-BDC (SARS-CoV-2 NSP3 Mac1 [1]; [3]): 0.07; PanDDA hit? (SARS-CoV-2 NSP3 Mac1 [1]; [5]): TRUE; Modeled? (SARS-CoV-2 NSP3 Mac1 [1]; [6]): TRUE
Cc1cc(S(=O)(=O)Nc2cnc3[nH]ccc3c2)n(C2CCCC2)n1 [FRESH00010608284],0.15,30,Y,−0.51,0.06 ˚C,–
CC1(C)CCC(C(=O)O)CN1C(=O)c1ncnc2[nH]ccc12 (stereo not drawn) [FRESH00012962804],0.22,44,Y,0.54,0.62 ˚C,"1-BDC (SARS-CoV-2 NSP3 Mac1 [1]; PanDDA event map, 1-BDC of the hit dataset, crystal soak, compound concentration 100 mM, listed as F2804): 0.32 and 0.28"
CC1(C(=O)O)CCN(C(=O)Cc2c[nH]c3nccc(Cl)c23)C1 (stereo not drawn) [FRESH00014134848],0.11,22,Y,0.41,0.07 ˚C,–
CNS(=O)(=O)c1cc(C(=O)N2CCc3nc(N)ncc3C2)co1 [FRESH00014649046],–,12,Y,0.3,0.29 ˚C,1-BDC (SARS-CoV-2 NSP3 Mac1 [1]; [3]): 0.07; 1-BDC (PanDDA) (SARS-CoV-2 NSP3 Mac1 [1]; [4]): 0.06; PanDDA hit? (SARS-CoV-2 NSP3 Mac1 [1]; [5]): TRUE; Modeled? (SARS-CoV-2 NSP3 Mac1 [1]; [8]): TRUE
O=c1nc(N2CC(Cn3cnnc3)C3(CCC3)C2)cc(Cl)[nH]1 (stereo not drawn) [FRESH00020289192],0.08,16,Y,−0.17,0.04 ˚C,–
O=C(O)[C@@H]1CCCN(C(=O)c2ccnc3[nH]ccc23)C1 [REAL250000548538],0.08,16,Y,0.27,0.25 ˚C,Modeled? (SARS-CoV-2 NSP3 Mac1 [1]; [8]): TRUE
O=C(c1cn[nH]c(=O)c1)N1CCC(CF)(C(=O)O)C1 (stereo not drawn) [REAL250001448407],0.12,24,Y,−0.24,0 ˚C,–
CN(CCCC(=O)O)C(=O)c1ncnc2[nH]ccc12 [REAL250002155324],0.12,24,Y,−0.27,0.12 ˚C,–
O=C(O)C[C@@H]1CCCN(c2ncnc3nc[nH]c23)C1 [REAL250002852032],0.19,38,Y,0.29,0.58 ˚C,–
Nc1ncnc(N2CCCC(CCC(=O)O)C2)c1Cl (stereo not drawn) [REAL250003296134],0.09,18,Y,0.65,0.34 ˚C,1-BDC (SARS-CoV-2 NSP3 Mac1 [1]; [3]): 0.09; PanDDA hit? (SARS-CoV-2 NSP3 Mac1 [1]; [5]): TRUE; Modeled? (SARS-CoV-2 NSP3 Mac1 [1]; [6]): TRUE
CN(CC(=O)O)C(=O)c1ccc2n[nH]c(=O)n2c1 [REAL250003774401],0.16,32,Y,−0.3,0 ˚C,–
CCc1c[nH]c2ncc(-c3c(C(=O)O)c(C)nn3C)cc12 [REAL250003958539],0.14,28,Y,0.15,0.35 ˚C,1-BDC (SARS-CoV-2 NSP3 Mac1 [1]; [9]): 0.2
CC1CC(C(=O)O)N1C(=O)c1cc(O)nc2ccc(F)cc12.O=C(O)C(F)(F)F (stereo not drawn) [REAL300007260658],0.11,22,Y,−0.11,0.37 ˚C,1-BDC (SARS-CoV-2 NSP3 Mac1 [1]; [9]): 0.18
CC1C(C(=O)O)CCCN1S(=O)(=O)c1c[nH]c2ncc(Cl)cc12 (stereo not drawn) [REAL300016493575],–,18,Y,−0.16,0.15 ˚C,1-BDC (PanDDA) (SARS-CoV-2 NSP3 Mac1 [1]; [4]): 0.09; Modeled? (SARS-CoV-2 NSP3 Mac1 [1]; [8]): TRUE

Compound,1-BDC (SARS-CoV-2 NSP3 Mac1 [1]; [4]),Refined occupancy (SARS-CoV-2 NSP3 Mac1 [1]; crystal soaking of Mac1),HIT* (SARS-CoV-2 NSP3 Mac1 [1]; [7]),Spearman est (compound concentration vs apparent Tm) (SARS-CoV-2 NSP3 Mac1 [2]),DSF max dTma (SARS-CoV-2 NSP3 Mac1 [2]; maximal thermal upshift),also measured
O=C(Cc1ccc(-n2cccn2)cc1)OCC1CCCNC1=O (stereo not drawn) [Z5505],–,–,–,–,–,HIT* (SARS-CoV-2 NSP3 Mac1 [1]; [10]): Y; DSF max dTma (SARS-CoV-2 NSP3 Mac1 [2]; [11]): 0.16 °C
c1csc(CC2CCN(c3ncnc4[nH]ccc34)C2)n1 (stereo not drawn) [Z6891],–,–,–,–,–,HIT* (SARS-CoV-2 NSP3 Mac1 [1]; [10]): Y; DSF max dTma (SARS-CoV-2 NSP3 Mac1 [2]; [11]): 0.15 °C
Cc1oc(=O)oc1CSc1ncnc2[nH]cnc12 [Z7450],–,–,–,–,–,HIT* (SARS-CoV-2 NSP3 Mac1 [1]; [10]): Y; DSF max dTma (SARS-CoV-2 NSP3 Mac1 [2]; [11]): 0.49 °C
OCc1cn(C2CCCN(c3ncnc4[nH]ccc34)C2)nn1 (stereo not drawn) [Z7864],–,–,–,–,–,HIT* (SARS-CoV-2 NSP3 Mac1 [1]; [10]): Y; DSF max dTma (SARS-CoV-2 NSP3 Mac1 [2]; [11]): 0.32 °C
Clc1cc2c(N3CCCC(c4nnc[nH]4)C3)ncnc2[nH]1 (stereo not drawn) [ZINC001187497156],–,–,–,0.32,–,–
CNS(=O)(=O)c1cccc(-c2ncnc3[nH]c4ccccc4c23)c1 [ZINC001240776402],–,–,–,−0.29,0.27 ˚C,–
O=C1CCCN1Cc1cccc(N2C(=O)N[C@@H](CO)C2=O)c1 [ZINC001320848619],–,–,–,0.18,0.2 ˚C,–
O=C(c1ncnc2[nH]ccc12)N1CC(n2cncn2)C1 [ZINC001327823432],–,–,–,0.54,0.66 ˚C,–
O=C(c1ncnc2[nH]ccc12)N1CC(n2ccnn2)C1 [ZINC001335091110],–,–,–,−0.36,0.04 ˚C,–
CN(Cc1ncc(Cl)n1C)c1ncnc(N)n1 [ZINC001337833291],–,–,–,0.82,–,–
CN(Cc1nnc2c(=O)[nH]ccn12)C(=O)COC1CC1 [ZINC001364630288],–,–,–,0.73,–,–
Nc1ncc(S(=O)(=O)N2CCC2c2cccc(F)c2)cn1 (stereo not drawn) [ZINC001365141527],–,–,–,−0.66,0 ˚C,–
CC(C(=O)N1CC(C(N)=O)C1)n1cnc2c(N)ncnc21 (stereo not drawn) [ZINC001434309614],–,–,–,0.08,0.26 ˚C,–
O=c1[nH]ccn2c(CSc3nc4ccccc4s3)nnc12 [ZINC001458791015],–,–,–,0.66,–,–
O=c1[nH]nc(C2CCCN(c3ncnc4[nH]c(Cl)cc34)C2)o1 (stereo not drawn) [ZINC001559178387],–,–,–,−0.22,–,–
Nc1ncnc(SCCc2cccc(Cl)c2Cl)n1 [ZINC001641481086],–,–,–,0.6,–,–
Cc1cc(C)nc(CSc2nnc3c(=O)[nH]c4ccccc4n23)c1 [ZINC001652467570],–,–,–,0.44,–,–
